Data published in patent US11739122B2, “Glycopeptide antibiotic compounds, methods for producing the same, and uses thereof” (Academia Sinica, priority 2019, dated 2023).
Values after ≈ are worked out from the molar mass of the structure shown.

Assays:
Assay in all cases: MIC, broth microdilution
VRE ATCC 700425 (vanC) = assay type: cell-based, enterococci; details: VRE ATCC 700425 (vanC)
Method: (§1) Determination of Minimal Inhibitory Concentration (MIC) for Vancomycin, Teicoplanin and Tei-Analogs Versus Selected Strains
(§2) MICs were determined by the broth microdilution method. Specifically, 12 Colonies of the test strain were picked up from 18-24 hour agar cultures and freshly inoculated into broth mediums until reaching the turbidity of a 0.5 McFarland standard. The broth culture was adjusted with broth medium to approximately 1×10^8 CFUmL^−1. […] The plates were incubated in 37° C. for 18-24 hours and monitored for the wells of the positive control, where cells grew, and the wells of the negative control, where wells should not grow. The MIC value was determined for the concentration of a test compound, at which there was no visible growth in the well.

VRE ATCC 700221 (vanA) = assay type: cell-based, enterococci; details: VRE ATCC 700221 (vanA)
Method: as §1, §2

VRE ATCC 700802 (vanB) = assay type: cell-based, enterococci; details: VRE ATCC 700802 (vanB)
Method: as §1, §2

E. faecalis ATCC 29302 = assay type: cell-based; details: EF ATCC 29302
Method: as §1, §2

MRSA ATCC BAA-39 = assay type: cell-based, Staphylococcus aureus; details: MRSA ATCC BAA-39
Method: as §1, §2

MRSA ATCC 700789 VRSA = assay type: cell-based, Staphylococcus aureus; details: MRSA ATCC 700789 VRSA
Method: as §1, §2

MRSA ATCC BAA-44 = assay type: cell-based, Staphylococcus aureus; details: MRSA ATCC BAA-44
Method: as §1, §2

S. aureus ATCC 29213 = assay type: cell-based, Staphylococcus aureus; details: SA ATCC 29213
Method: as §1, §2

MRSA ATCC 700698 hVISA = assay type: cell-based, Staphylococcus aureus; details: MRSA ATCC 700698 hVISA
Method: as §1, §2

MRSA ATCC BAA-38 = assay type: cell-based, Staphylococcus aureus; details: MRSA ATCC BAA-38
Method: as §1, §2

MRSA ATCC 700787 VRSA = assay type: cell-based, Staphylococcus aureus; details: MRSA ATCC 700787 VRSA
Method: as §1, §2

MRSA ATCC 43300 = assay type: cell-based, Staphylococcus aureus; details: MRSA ATCC 43300
Method: as §1, §2

A. baumannii ATCC 19606 = assay type: cell-based, Acinetobacter baumannii; details: for MIC on AB: A. baumannii ATCC 19606
Method: as §1, §2

[1] = A. baumannii ATCC 19606, Table 3, first figure of cell
[2] = A. baumannii ATCC 19606, Table 3, second figure of cell

Structure (SMILES)	MIC (VRE ATCC 700425 (vanC)) [µg/mL]	MIC (VRE ATCC 700221 (vanA)) [µg/mL]	MIC (VRE ATCC 700802 (vanB)) [µg/mL]	MIC (E. faecalis ATCC 29302) [µg/mL]	MIC (MRSA ATCC BAA-39) [µg/mL]	MIC (MRSA ATCC 700789 VRSA) [µg/mL]	MIC (MRSA ATCC BAA-44) [µg/mL]	MIC (S. aureus ATCC 29213) [µg/mL]	MIC (MRSA ATCC 700698 hVISA) [µg/mL]	MIC (MRSA ATCC BAA-38) [µg/mL]	MIC (MRSA ATCC 700787 VRSA) [µg/mL]	MIC (MRSA ATCC 43300) [µg/mL]	MIC (A. baumannii ATCC 19606; [1]) [µM]	MIC (A. baumannii ATCC 19606; [2]) [µg/mL]	MIC on AB (A. baumannii ATCC 19606) [µg/mL]
N[C@H]1C(=O)N[C@@H]2Cc3ccc(c(Cl)c3)Oc3cc4cc(c3O)Oc3ccc(cc3Cl)[C@@H](O[C@@H]3O[C@H](CO)[C@@H](O)[C@H](O)[C@H]3NC(=O)CCCCCCCCCCCO)[C@@H]3NC(=O)[C@H](NC(=O)[C@@H]4NC(=O)[C@@H](NC2=O)c2cc(O)cc(c2)Oc2cc1ccc2O)c1ccc(O)c(c1)-c1c(O)cc(O)cc1[C@@H](C(=O)O)NC3=O [Compound 19]	1 (≈ 0.642 µM)	>16	0.5 (≈ 0.321 µM)	0.25 (≈ 0.16 µM)	0.016 (≈ 0.0103 µM)	0.25 (≈ 0.16 µM)	0.016 (≈ 0.0103 µM)	0.016 (≈ 0.0103 µM)	0.016 (≈ 0.0103 µM)	0.031 (≈ 0.0199 µM)	0.016 (≈ 0.0103 µM)	0.063 (≈ 0.0404 µM)	–	–	–
CN(C)[C@H]1C(=O)N[C@@H]2Cc3ccc(c(Cl)c3)Oc3cc4cc(c3O)Oc3ccc(cc3Cl)[C@@H](O[C@@H]3O[C@H](CO)[C@@H](O)[C@H](O)[C@H]3NC(=O)CCCCCCCN)[C@@H]3NC(=O)[C@H](NC(=O)[C@@H]4NC(=O)[C@@H](NC2=O)c2cc(O)cc(c2)Oc2cc1ccc2O)c1ccc(O)c(c1)-c1c(O)cc(O)cc1[C@@H](C(=O)O)NC3=O [Compound 22]	2 (≈ 1.31 µM)	>16	1 (≈ 0.654 µM)	1 (≈ 0.654 µM)	–	–	–	0.031 (≈ 0.0203 µM)	0.125 (≈ 0.0817 µM)	–	0.063 (≈ 0.0412 µM)	–	25	38.19	–
CCCCCCCC(=O)N[C@H]1[C@H](O[C@@H]2c3ccc(c(Cl)c3)Oc3cc4cc(c3O)Oc3ccc(cc3Cl)C[C@H]3NC(=O)[C@H](N(C)C)c5ccc(O)c(c5)Oc5cc(O)cc(c5)[C@H](NC3=O)C(=O)N[C@H]4C(=O)N[C@H]3C(=O)N[C@@H]2C(=O)N[C@H](C(=O)O)c2cc(O)cc(O)c2-c2cc3ccc2O)O[C@H](CO)[C@@H](O)[C@@H]1O [Compound 20]	1 (≈ 0.66 µM)	>16	0.5 (≈ 0.33 µM)	0.25 (≈ 0.165 µM)	0.016 (≈ 0.0106 µM)	0.5 (≈ 0.33 µM)	0.016 (≈ 0.0106 µM)	0.016 (≈ 0.0106 µM)	0.016 (≈ 0.0106 µM)	0.016 (≈ 0.0106 µM)	0.016 (≈ 0.0106 µM)	0.063 (≈ 0.0416 µM)	–	–	–
CN(C)[C@H]1C(=O)N[C@@H]2Cc3ccc(c(Cl)c3)Oc3cc4cc(c3O)Oc3ccc(cc3Cl)[C@@H](O[C@@H]3O[C@H](CO)[C@@H](O)[C@H](O)[C@H]3NC(=O)CCCCCCCNC(=N)NC(=N)N)[C@@H]3NC(=O)[C@H](NC(=O)[C@@H]4NC(=O)[C@@H](NC2=O)c2cc(O)cc(c2)Oc2cc1ccc2O)c1ccc(O)c(c1)-c1c(O)cc(O)cc1[C@@H](C(=O)O)NC3=O [Compound 25, r1,Me2-r6,C8-diguanidino-Tei]	–	–	–	–	–	–	–	–	–	–	–	–	25	40.29	39.24 (≈ 24.3 µM)
N[C@H]1C(=O)N[C@@H]2Cc3ccc(c(Cl)c3)Oc3cc4cc(c3O)Oc3ccc(cc3Cl)[C@@H](O[C@@H]3O[C@H](CO)[C@@H](O)[C@H](O)[C@H]3NC(=O)CCc3ccccc3)[C@@H]3NC(=O)[C@H](NC(=O)[C@@H]4NC(=O)[C@@H](NC2=O)c2cc(O)cc(c2)Oc2cc1ccc2O)c1ccc(O)c(c1)-c1c(O)cc(O)cc1[C@@H](C(=O)O)NC3=O [Compound 15]	1 (≈ 0.67 µM)	>16	0.5 (≈ 0.335 µM)	0.25 (≈ 0.168 µM)	0.016 (≈ 0.0107 µM)	0.5 (≈ 0.335 µM)	0.016 (≈ 0.0107 µM)	0.031 (≈ 0.0208 µM)	0.016 (≈ 0.0107 µM)	0.016 (≈ 0.0107 µM)	0.031 (≈ 0.0208 µM)	0.031 (≈ 0.0208 µM)	–	–	–
CC(=O)NC1C(OC2c3ccc(c(Cl)c3)Oc3cc4cc(c3OC3OC(CO)C(O)C(O)C3NC(=O)CCCCCCCNC(=N)N)Oc3ccc(cc3Cl)CC3NC(=O)C(N(C)C)c5ccc(O)c(c5)Oc5cc(O)cc(c5)C(NC3=O)C(=O)NC4C(=O)NC3C(=O)NC2C(=O)NC(C(=O)O)c2cc(O)cc(OC4OC(CO)C(O)C(O)C4O)c2-c2cc3ccc2O)OC(CO)C(O)C1O (stereo not drawn) [Compound 27]	–	–	–	–	–	–	–	–	–	–	–	–	50	96.73	–
C#CCCC(=O)N[C@H]1[C@H](O[C@@H]2c3ccc(c(Cl)c3)Oc3cc4cc(c3O)Oc3ccc(cc3Cl)C[C@H]3NC(=O)[C@H](N)c5ccc(O)c(c5)Oc5cc(O)cc(c5)[C@H](NC3=O)C(=O)N[C@H]4C(=O)N[C@H]3C(=O)N[C@@H]2C(=O)N[C@H](C(=O)O)c2cc(O)cc(O)c2-c2cc3ccc2O)O[C@H](CO)[C@@H](O)[C@@H]1O [Compound 13]	4 (≈ 2.78 µM)	>16	4 (≈ 2.78 µM)	0.5 (≈ 0.347 µM)	0.063 (≈ 0.0437 µM)	1 (≈ 0.694 µM)	0.031 (≈ 0.0215 µM)	0.063 (≈ 0.0437 µM)	0.063 (≈ 0.0437 µM)	0.063 (≈ 0.0437 µM)	0.063 (≈ 0.0437 µM)	0.125 (≈ 0.0868 µM)	–	–	–
CN(C)[C@H]1C(=O)N[C@@H]2Cc3ccc(c(Cl)c3)Oc3cc4cc(c3O)Oc3ccc(cc3Cl)[C@@H](O[C@@H]3O[C@H](CO)[C@@H](O)[C@H](O)[C@H]3NC(=O)CCCCCCC[N+](C)(C)C)[C@@H]3NC(=O)[C@H](NC(=O)[C@@H]4NC(=O)[C@@H](NC2=O)c2cc(O)cc(c2)Oc2cc1ccc2O)c1ccc(O)c(c1)-c1c(O)cc(O)cc1[C@@H](C(=O)O)NC3=O [Compound 23]	2	>16	1	0.25	–	–	–	0.031	0.031	–	0.031	–	50	78.52	78.52
CN(C)[C@H]1C(=O)N[C@@H]2Cc3ccc(c(Cl)c3)Oc3cc4cc(c3O)Oc3ccc(cc3Cl)[C@@H](O[C@@H]3O[C@H](CO)[C@@H](O)[C@H](O)[C@H]3NC(=O)CCCCCCCO)[C@@H]3NC(=O)[C@H](NC(=O)[C@@H]4NC(=O)[C@@H](NC2=O)c2cc(O)cc(c2)Oc2cc1ccc2O)c1ccc(O)c(c1)-c1c(O)cc(O)cc1[C@@H](C(=O)O)NC3=O [Compound 21]	8 (≈ 5.23 µM)	>16	8 (≈ 5.23 µM)	1 (≈ 0.653 µM)	–	–	–	0.125 (≈ 0.0817 µM)	0.063 (≈ 0.0412 µM)	–	0.125 (≈ 0.0817 µM)	–	100	152.84	152.84 (≈ 99.9 µM)
NCCC[C@H](N)CC(=O)N[C@@H]1[C@H](O)[C@@H](OC(N)=O)[C@@H](CO)O[C@H]1NC1=N[C@@H]2C(=O)NC[C@@H](O)[C@H]2N1 [streptothricin F, reference compound]	–	–	–	–	–	–	–	–	–	–	–	–	12.5	6.28	–
